Reference: patent US20230225973A1, “MULTI-LAYERED MEDICAMENT FOR INHALATION” (Mylan Pharma UK Limited, priority 2020, published 2023)

Experiments:
[1] = Aerosolization performance: TIR and FPM from a next generation impactor (NGI), equivalence of MGR001/MGR002 with MGR003; format: physicochemical; conditions: for FPM, Pass/fail (0.90-1.11) / TIR, Pass/fail (0.90-1.11): 90% CI of ratio of geometric means within 0.90-1.11
Excerpt: The same batches for MGR002 and MGR003 were utilized in obtaining emitted data used to obtain aerosolization performance information. Table 5 below presents the results and equivalence criteria, respectively for 5-[3-(3-Hydroxyphenoxy)azetidin-1-yl]-5-methyl-2,2-diphenylhexanamide hydrochloride of formula II, fluticasone propionate and salmeterol.
The […] (FPM) and mean total impactor recovery (TIR) from a next generation impactor (NGI) for each batch were equivalent, based on the fact that the upper/lower 90% confidence interval of the ratio of the geometric mean, rested between 0.90 and 1.11. […] The fluticasone propionate and salmeterol xinafoate components of the MGR003 drug product also met the same performance targets as the MGR001 250/50 drug product.

[2] = Comparison of fine particle dose (FPD) performance of blended combination, layer filled combination and baseline products; format: physicochemical; conditions: FIG. 6; product T3 (low shear triple blend)
Method: The two options were to either: 1) layer fill blends of the individual products or; 2) low shear mix blends of the individual products. The individual products were either 0.58% w/w salmeterol xinafoate/4% w/w fluticasone propionate combination blend or 4.8% w/w 5-[3-(3-Hydroxyphenoxy)azetidin-1-yl]-5-methyl-2,2-diphenylhexanamide hydrochloride blend.
Four products (L1, L2, L3, and T3) were prepared as outline below. Products L1 and L2 were the baseline products for the layer filled combination product L3, and the blended combination product, T3.
The blend is made of 4.8% w/w 5-[3-(3-Hydroxyphenoxy)azetidin-1-yl]-5-methyl-2,2-diphenylhexanamide hydrochloride mixed with lactose monohydrate in a Diosna high shear blender. The nominal dose of 5-[3-(3-Hydroxyphenoxy)azetidin-1-yl]-5-methyl-2,2-diphenylhexanamide hydrochloride per pocket is 264 mcg.
The blend is made of 0.58% w/w salmeterol xinafoate and 4% w/w fluticasone propionate mixed with lactose monohydrate in a Diosna high shear blender. The nominal doses of salmeterol xinafoate and fluticasone propionate per pocket are 72.5 mcg and 500 mcg, respectively.
The salmeterol xinafoate/fluticasone propionate blend is made of 0.58% w/w salmeterol xinafoate and 4% w/w fluticasone propionate mixed with lactose monohydrate in a Diosna high shear blender. The 5-[3-(3-Hydroxyphenoxy)azetidin-1-yl]-5-methyl-2,2-diphenylhexanamide hydrochloride blend is made of 4.8% w/w 5-[3-(3-Hydroxyphenoxy)azetidin-1-yl]-5-methyl-2,2-diphenylhexanamide hydrochloride mixed with lactose monohydrate in a Diosna high shear blender. The nominal doses of salmeterol xinafoate, fluticasone propionate and 5-[3-(3-Hydroxyphenoxy)azetidin-1-yl]-5-methyl-2,2-diphenylhexanamide hydrochloride per pocket are 72.5 mcg, 500 mcg and 264 mcg, respectively.
The triple blend is prepared by mixing with a low shear Turbula mixer, a 0.58% w/w salmeterol xinafoate, 4% w/w fluticasone propionate blend with 4.8% w/w 5-[3-(3-Hydroxyphenoxy)azetidin-1-yl]-5-methyl-2,2-diphenylhexanamide hydrochloride blend in the ratio 12.5:5.5. […]

[3] = FPM from next generation impactor
[4] = mean total impactor recovery, next generation impactor

Row | SMILES | FPM, ratio of geometric means (MGR001 divided by MGR003) [1, 3] | FPM, Pass/fail (0.90-1.11) ([1]; MGR001 versus MGR003) | TIR, Pass/fail (0.90-1.11) ([1]; MGR001 versus MGR003) | TIR, ratio of geometric means (MGR001 divided by MGR003) [1, 4] | FPD of the individual drug in blended combination product T3 versus baseline product [2] | FPM, ratio of geometric means (MGR002 divided by MGR003) [1, 3] | FPM, Pass/fail (0.90-1.11) ([1]; MGR002 versus MGR003) | TIR, Pass/fail (0.90-1.11) ([1]; MGR002 versus MGR003) | TIR, ratio of geometric means (MGR002 divided by MGR003) [1, 4]
1 | CCC(=O)O[C@]1(C(=O)SCF)[C@H](C)C[C@H]2[C@@H]3C[C@H](F)C4=CC(=O)C=C[C@]4(C)[C@@]3(F)[C@@H](O)C[C@@]21C [Fluticasone propionate, fluticasone propionate] | 0.99 | Pass | Pass | 0.96 | slightly lowered FPD |  |  |  | 
2 | CC(C)(CCC(C(N)=O)(c1ccccc1)c1ccccc1)N1CC(Oc2cccc(O)c2)C1.Cl [5-[3-(3-Hydroxyphenoxy)azetidin-1-yl]-5-methyl-2,2-diphenylhexanamide hydrochloride] |  |  |  |  | much lower FPD | 0.95 | Pass | Pass | 0.97
3 | OCc1cc(C(O)CNCCCCCCOCCCCc2ccccc2)ccc1O (stereo not drawn) [Salmeterol, salmeterol xinafoate] | 1.01 | Pass | Pass | 0.97 | more variability |  |  |  | 
